According to PMC8811960, “A Novel 2-Carbon-Linked Dimeric Artemisinin With Potent Antileukemic Activity and Favorable Pharmacology” (Frontiers in Oncology, 2022):

What was measured:
HEL = experiment: alamarBlue growth inhibition, HEL; type: cell-based; details: Homo sapiens, 48h, mean of 2 independent assays ± SD
Method: (§1) Cytotoxicity was assessed using alamarBlue assays (Life Technologies, Grand Island, NY) following manufacturer’s guidelines. Cell death was verified by Annexin V/7-aminoactinomycin D (7AAD) staining (BioLegend, San Diego, CA) per manufacturer’s guidelines.

[1] = system: C/EBP homologous protein (CHOP); experiment: Western blot for CHOP; type: cell-based, human; details: MOLM14, 200 nM, 18h, similar results in MV4;11 and ML2
Method: (§2) Cells were pre-treated with […] ROS detection reagent 5-(and 6-)-chloromethyl-2’,7’-dichlorodihydrofluorescein diacetate (CM-H2DCFDA, Life Technologies) for 30 min, followed by the iron chelator deferoxamine mesylate (DFO; 11 mM) for 60 min. Cells were then treated with ART631 (200 nM) or DMSO control for 18h, with subsequent analysis by flow cytometry. Western blotting and quantitative reverse transcription PCR (qRT-PCR) to assess for molecular markers of ROS-mediated apoptosis were performed as previously described ([20]).
(§3) Figure 4 ART631 elevated ROS and CHOP levels and reduced MCL1 expression in MOLM14 AML cells. (A) MOLM14 AML cells were pre-treated with ROS detection reagent CM-H2DCFDA ([…]) for 30 min, pre-treated with deferoxamine mesylate (DFO; 11 mM) for 60 min, and then treated with ART631 (200 nM) or DMSO control for 18h. They were then analyzed by flow cytometry. Graph represents %CM-H2DCFDA fluorescence compared to vehicle (DMSO) control treated cells. Error bars represent SD from 3 independent experiments. (B) MOLM14 AML cells were treated for 18h with vehicle, AS (10 uM), ART838 (200 nM), ART631 (200 nM), cytarabine (AraC; 150 nM), or SOR (5 uM). Protein was isolated and western blotted for MCL1, BCL2, CHOP, and β-actin. (C) MOLM14 cells were treated as in (B) for 18h, total RNA isolated, cDNA synthesized, and SYBR Green qRT-PCR performed in triplicates. […]

THP1 = experiment: alamarBlue growth inhibition, THP1; type: cell-based; details: Homo sapiens, THP-1, THP1, 48h, mean of 2 independent assays ± SD
Method: as §1

AML45 PDX = experiment: luc-labeled AML45 patient-derived xenograft; type: in vivo, NRG mice; details: ART631 monotherapy p=0.0029
Description: (§4) Immunodeficient NOD-Rag1^nullIL2rg^null (NRG) mice were purchased from Jackson Laboratory (Bar Harbor, ME), bred and housed at the University of Maryland Baltimore. Similar to our previous publication ([20]). mice were transplanted IV with luc-labeled human AML cell lines or cryopreserved AML patient cells on day -10, and baseline total body luminescence was quantified on day 0 by Xenogen bioluminescence imaging (Xenogen IVIS Spectrum; PerkinElmer, Waltham, MA). Mice were allocated to treatment groups so that each group had similar average day 0 luminescence, then groups were administered drugs per oral (PO; gavage). Luminescence of each mouse was assessed over time and compared with that mouse’s day 0 luminescence (fold-change AML burden). Clinical behavior, appearance, weight, and survival were also monitored.
We then compared the efficacy of 15 mg/kg/d ART631 monotherapy, versus 150 mg/kg/d VEN plus 30 mg/kg/d SOR, versus ART631 combined with VEN plus SOR (i.e. SAV) at the previously indicated doses, using a luc-labeled AML45 PDX model ( Figure 9A ). […]
Figure 9 VEN plus SOR plus ART631 inhibited growth of an AML PDX. […] (A) After Xenogen quantification of baseline total body luminescence on day 0, mice were placed into balanced experimental groups prior to drug administration via gavage, then treated per our previously established MTD PO x 5 day schedule (5 days on, 9 days off). […]

MCL1 = experiment: Western blot for MCL1; type: cell-based, human; details: MOLM14, 200 nM, 18h, similar results in MV4;11 and ML2
Method: as §2, §3

MOLM14 AML xenografts = experiment: luc-labeled MOLM14 AML cell line xenograft; type: in vivo, NRG mice; details: 15 mg/kg/d PO, 5 days on, 9 days off, 5 cycles
Description: as §4
Using our previously determined 5-day MTD SAV drug schedule (i.e. 5-day treatment cycles consisting of 15 mg/kg/d ART631 combined with 150 mg/kg/d VEN and 30 mg/kg/d SOR, followed by 9 days off drug; schematic in Figure 7A ), we assessed treatment of established human luc-labeled MV4;11 ( Figures 7B–D ) and MOLM14 AML ( Figures 8A–C ) cell line xenografts with VEN plus SOR plus ART631 in NRG mice ( Figures 7B , 8A ). […]

In the case of `C=CCO/N=C(/C[C@H]1O[C@@H]2O[C@@]3(C)CC[C@H]4[C@H](C)CC[C@@H]([C@H]1C)[C@@]24OO3)[C@H]1O[C@@H]2O[C@@]3(C)CC[C@H]4[C@H](C)CC[C@@H]([C@H]1C)[C@@]24OO3` [ART631], the IC50 (HEL) is reported as 45 ± 5 nM, the “level of CHOP protein” value [1] is reported as “increase” and the IC50 (THP1) is reported as 42 ± 2 nM. The survival versus vehicle (AML45 PDX) was “statistically significant increase in survival”, the MCL1 protein expression (MCL1) was “decreased” and the “antileukemic activity of monotherapy” value (MOLM14 AML xenografts) was “no activity”.
